Data on two compounds can be found in PMC9130746, “In Vitro Activity of Peptide Antibiotics in Combination With Other Antimicrobials on Extensively Drug-Resistant Acinetobacter baumannii in the Planktonic and Biofilm Cell” (Frontiers in Pharmacology, 2022).

The structures appear in SMILES notation. Converted amounts (≈) assume the structure as drawn. Where two headings read alike, the source gives them in different places. Bridge positions count the residues as written; N and C are the ends. Square brackets hold non-standard residues; d marks the D form. Peptide text beside a SMILES is read from it. * marks the point of attachment. Ileψ(thiazoline)Cys = CC[C@H](C)[C@H](N)C1=N[C@H](C(=O)*)CS1; dOrn = NCCC[C@@H](N)C(=O)O

Common to all, as to type: cell-based, Acinetobacter baumannii
Assay [1] has as its system extensively drug-resistant A. baumannii isolates (biofilm cell). Put plainly: Checkerboard synergy study in the biofilm cell (FBIC). The conditions noted are these: in combination with polymyxins. The procedure: The checkerboard method, the fractional inhibitory concentration index (FICI), and the fractional biofilm inhibitory concentration index (FBIC) evaluated the synergistic effects of five peptide antibiotics combined with one of the five antimicrobials in the planktonic and biofilm cells among the nine XDRAB isolates. The planktonic cells were investigated by adding 170 µl of MHB and 10 µl of bacterial suspension (1.5 × 10^8 CFU/ml) into the 96 well plates. It was followed by adding 10 µl of serially diluted peptide antibiotics along the x-axis and antimicrobials along the y-axis. The biofilm cells were studied by cultivating the bacteria to form the biofilm into a 96-well plate (NEST TC, 701001, www.cell-nest.com) and washed with 200 µl of PBS three times. The following steps were consistent with the planktonic study. The value of OD600 was measured after incubating at 37°C for 20 h. The FICI and FBIC were evaluated as follows: Synergy between the two drugs was defined as either a FICI or an FBIC of ≤0.5, >0.5–1 for additivity, >1–2 for indifference, and >2 for antagonism ([Kim et al., 2015]; [Peng et al., 2020]; [Lin et al., 2021]).

In assay [2] the test system is extensively drug-resistant A. baumannii clinical isolates (planktonic cell). Put plainly: microbe, parasite or virus in culture. The text has this: (§1) Nine XDRAB strains were isolated from clinical specimens such as the septum, urine, or respiratory lavage fluid of patients from the respiratory intensive care unit, intensive care unit, the cardiothoracic surgery department, and the neurology department at the First Affiliated Hospital of Chengdu Medical College during the period from 2018 to 2020 (Chengdu, Sichuan, China). In addition, A. baumannii ATCC 19606, Staphylococcus aureus ATCC 29213, and Escherichia coli ATCC 25922 were used as quality control strains in antimicrobial susceptibility testing (AST) and obtained from the American Type Culture Collection (ATCC, Manassas, VA, United States).
The minimum inhibitory concentrations (MICs) were determined by the broth microdilution method for the antibacterial agents and peptide antibiotics for A. baumannii based on the guidelines provided by the Clinical and Laboratory Standards Institute (CLSI) ([Humphries et al., 2021]). Briefly, bacterial cells were inoculated in Luria–Bertani agar medium at 37°C for 16–20 h, and then resuspended in saline (0.9% sodium chloride) to adjust the bacterial content to reach the 0.5 McFarland turbidity standard, followed by a 20-fold dilution. Antimicrobial solutions were prepared according to the CLSI ([Humphries et al., 2021]). Finally, 180 μl CAMHB, 10 µl corresponding antimicrobials, and 10 µl bacterial resuspension were added into 96-well plate (NEST TC, 701001, www.cell-nest.com). The value of OD600 was measured after incubating at 37°C for 16–20 h.

The subject of assay [3] is extensively drug-resistant A. baumannii clinical isolates (biofilm cell). The conditions noted are these: extensively drug-resistant clinical isolates (biofilm cell, 24 h).
From the text: as §1
The minimum biofilm inhibitory concentrations (MBICs) were detected using a previous study protocol ([Kart et al., 2021]) for the antibacterial agents and peptide antibiotics for A. baumannii in the biofilm cell. First, bacterial cells were inoculated in Luria–Bertani agar medium at 37°C for 16–20 h. Next, the bacterial monoclones were resuspended in saline (0.9% sodium chloride) to adjust the bacterial content to reach the 0.5 McFarland turbidity standard. Then, 190 µl TSB and 10 µl bacterial resuspension were mixed in a 96-well plate. After incubating at 37°C for 24 h, the medium was aspirated, and 200 µl PBS was added to wash three times. Finally, 190 μl MH broth medium and 10 µl corresponding antibiotics were added into 96-well plate (NEST TC, 701001, www.cell-nest.com). The optical density was measured at OD600 after incubating for 16–20 h at 37°C.

As for `CC[C@H]1OC(=O)[C@H](C)[C@@H](O[C@H]2C[C@@](C)(OC)[C@@H](O)[C@H](C)O2)[C@H](C)[C@@H](O[C@@H]2O[C@H](C)C[C@H](N(C)C)[C@H]2O)[C@](C)(O)C[C@@H](C)CN(C)[C@H](C)[C@@H](O)[C@]1(C)O` [azithromycin], the “MBIC when combined with polymyxins” value in assay [1] worked out at 128 µg/mL.
For the compound `CC[C@H](C)[C@H](N)C1=N[C@H](C(=O)N[C@@H](CC(C)C)C(=O)N[C@H](CCC(=O)O)C(=O)N[C@H](C(=O)N[C@H]2CCCCNC(=O)[C@H](CC(N)=O)NC(=O)[C@@H](CC(=O)O)NC(=O)[C@H](Cc3cnc[nH]3)NC(=O)[C@@H](Cc3ccccc3)NC(=O)[C@H]([C@@H](C)CC)NC(=O)[C@@H](CCCN)NC2=O)[C@@H](C)CC)CS1` [Bacitracin, bacitracin] ({Ileψ(thiazoline)Cys}-L[dE]IK[dOrn]I[dF]H[dD]N; lactam 4-C (inferred); N-terminus assumed), the MIC amounted to 64 µg/mL (≈ 45 µM) in assay [2]; 128 µg/mL (≈ 90 µM) in assay [2] (isolate AB3, planktonic, broth microdilution, CAMHB, 37°C 16–20 h, OD600); 128 µg/mL (≈ 90 µM) in assay [2] (isolate AB4, planktonic, broth microdilution, CAMHB, 37°C 16–20 h, OD600); 128 µg/mL (≈ 90 µM) in assay [2] (isolate AB5, planktonic, broth microdilution, CAMHB, 37°C 16–20 h, OD600); 128 µg/mL (≈ 90 µM) in assay [2] (isolate AB6, planktonic, broth microdilution, CAMHB, 37°C 16–20 h, OD600); 128 µg/mL (≈ 90 µM) in assay [2] (isolate AB8, planktonic, broth microdilution, CAMHB, 37°C 16–20 h, OD600). For the same compound, the MIC in assay [2] (isolate AB9, planktonic, broth microdilution, CAMHB, 37°C 16–20 h, OD600) is 128 µg/mL (≈ 90 µM). The compound also gave an MBIC in assay [3] of 256 µg/mL.
